Measured values as given in paper PMC9504208, “Comprehensive Study of Antiretroviral Drug Permeability at the Cervicovaginal Mucosa via an In Vitro Model” (Pharmaceutics, 2022).
Where two headings read alike, the source gives them in different places. One block for each compound: values may come before it.

Experiments:
HEC-1A cells [1] = assay: Cytokine production of HEC-1A cells stimulated with PAMPs (Luminex); format: cell-based, human; settings: 24 h stimulation
Protocol: HEC-1A cells were stimulated with different PAMPs (pam 3CSK4, lipoteichoic acid, poly(I:C), Escherichia coli lipopolysaccharide, FSL-1, flagellin, imiquimod, zymosan) (InvivoGen, San Diego, CA, USA) diluted in cell culture media with incubation at 37 °C in 5% CO2 for 24 h. PAMPs were titrated to determine the optimal concentration for cytokine stimulation. Blank samples contained media only. After 24 h, the supernatant was collected for cytokine detection. Cytokine levels were determined using a Magnetic Luminex® Performance Assay kit (R&D Systems, Minneapolis, MN, USA) following the manufacturer’s instructions. Analyte-specific antibodies were pre-coated onto colour-coded microparticles and detection was carried out with a biotinylated antibody cocktail specific to the target cytokines and a streptavidin-phycoerythrin conjugate. Samples were resuspended in 100 µL of Washing Buffer and measured for a phycoerythrin-derived signal using a Luminex® 100 instrument.

[2] = system: drug transporter mRNA expression in HEC-1A cells; assay: Drug transporter mRNA expression (RT-qPCR) in stimulated HEC-1A cells; format: cell-based, human; settings: 72 h stimulation
Protocol: Control was 0.1% DMSO with no drug. Cytokines were reconstituted in sterile and distilled water and added individually to cell cultures at the following concentrations: TNF-α (200 pg/mL), IL-1β (8 ng/mL), IL-6 (5 ng/mL) and IL-8 (100 ng/mL) were. […] Cells were stimulated for either drugs, cytokines or hormones for 72 h, before harvesting by centrifugation at 300× g for 10 min at 4 °C. For Lactobacillus crispatus a final MoI of 10 was used (10:1, bacterial cells:mammalian cell ratio) for co-culture in both HEC-1A and VK2/E6E7 cell lines. For Candida albicans, a final MoI of 1 for HEC-1A cells and 0.25 for VK2/E6E7 cells was used. Cells were incubated with fungal cells at 37 °C/5% CO2 for 24 h. All cell line stimulation experiments were conducted as a minimum of three biological repeats.
RNA extraction was performed using the RNeasy® Mini Kit (Qiagen, Manchester, UK). Cells were lysed by suspension in 600 μL of RLT Buffer with 1% β-mercaptoethanol (Sigma-Aldrich) and mechanical lysis into a QIAshredder (Qiagen). After the addition of 70% ethanol, the solution was loaded onto RNeasy columns for RNA purification as per the manufacturer’s instructions. DNase treatment was 15 min at room temperature. RNA was eluted from the columns with 30 μL of RNase-free ddH2O. Tapestation analysis was performed using an Agilent 2200 Tapestation system to determine the integrity of the RNA.
Synthesis of cDNA was performed using a Superscript® VILO™ kit (Life Technologies, Paisley, UK). Reverse transcription was performed at 25 °C for 10 min, 42 °C for 60 min and 85 °C for 5 min. The cDNA was then stored at −20 °C until RT-PCR assays.
SYBRgreen® PrecisionTM 2× qPCR Mastermix with ROX quencher (Primer Design, Southampton, UK) was used for all RT-qPCR assays. Individual primers were designed to target the HPRT1 and RPLP0 housekeeper genes (selected from an initial panel based on SD scores as a measure of the consistency of expression amongst all samples) in addition to seventeen ARV-associated drug transporters (9 ABC transporters and 8 SLC transporters) replicating the system contained in the TaqMan® 96-well Drug Transporter Array system (Life Technologies, Paisley, UK). Real-time quantitative PCR was performed using the 7900HT Fast Real-Time PCR system and data was analysed using the SDS 2.4 software (Applied Biosystems, Waltham, MA, USA). Cycling conditions were: 95 °C for 5 min, followed by 40 cycles of denaturation at 95 °C for 10 s, annealing at 60 °C for 10 s and extension at 72 °C for 10 s. Relative transcript levels in drug-stimulated cells were determined using the comparative Ct method (ΔΔCt method). Fold-change values of ±2–3 were considered minor, ±3–5 as moderate and >±5 as high.

HEC-1A monolayer = assay: Darunavir transfer across low-pH-adapted HEC-1A monolayers at apical pH 7.5 or 5.5 (LC-MS/MS); format: in vitro ADME, human; settings: for % of darunavir transferred to the receiver compartment, absorptive direction: 2 h, n = 10
in vitro = settings: human, pH 7.4
HEC-1A cell layers [3] = assay: Permeability across HEC-1A cell layers stimulated with poly(I:C); settings: p > 0.05, ANOVA
[4] = ref DrugBank; cited from earlier work
HEC-1A barrier model = assay: Permeability of labelled drug across HEC-1A model on coadministration with a second ARV; format: in vitro ADME, human; settings: labelled drug 10 µM; for Absorptive permeability on coadministration with dapivirine: dapivirine 0–10 µM
[5] = Bi-directional permeability (Papp) across HEC-1A dual chamber (Transwell) barrier model; format: in vitro ADME; settings: human
Protocol: The apical chambers of 12-well polycarbonate and polyester systems (Corning Costar Corp, Cambridge, UK) were seeded with different densities of HEC-1A cells in 500 µL of the medium while 1500 µL culture medium was added to the basolateral chamber. -Medium in both chambers was changed every 48–72 h.

HEC-1A cell layers [6] = system: HEC-1A cell layers
HEC-1A cells [7] = assay: Cell-associated drug and distribution between apical and basolateral compartments after absorptive permeability assay; format: in vitro ADME, human; settings: for Cell-associated drug (HEC-1A cells): after absorptive permeability assays;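 for all read-outs here: transwell transport run over 2 h at 37 °C, radiolabelled drug quantified by liquid scintillation counting, with insert membranes also counted for mass balance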

Compound: flagellin
Pro-inflammatory cytokine production (HEC-1A cells [1]): stimulated production of IL-8, GM-CSF and TNF-α

Compound: IL-8: pro-inflammatory cytokine
Change in expression of drug transporters (panel of 17) [2]: No changes

Compound: CN(C)C(=O)CCSC(SCCC(=O)O)c1cccc(/C=C/c2ccc3ccc(Cl)cc3n2)c1 (stereo not drawn) [MK571]
Effect on absorptive transfer of darunavir (HEC-1A monolayer; MK571 (50 µM) in donor compartment, apical pH 5.5): reduced the absorptive transfer of darunavir to the level observed at pH 7.5

Compound: CC(C)CN(C[C@@H](O)[C@H](Cc1ccccc1)NC(=O)O[C@H]1CO[C@H]2OCC[C@H]21)S(=O)(=O)c1ccc(N)cc1 [darunavir, Darunavir]
Papp at 2 h, 10 µM (in vitro): 8.24 ± 0.6 ×10⁻⁶ cm/s
Difference in Papp (A-B or B-A), poly(I:C)-stimulated vs unstimulated cell layers (HEC-1A cell layers [3]): no significant differences
% of darunavir transferred to the receiver compartment, absorptive direction (HEC-1A monolayer; apical pH 5.5, basal pH 7.5, p < 0.001): 30.1 ± 6.0%
% of darunavir transferred to the receiver compartment, absorptive direction (HEC-1A monolayer; apical pH 7.5): 20 ±2.8%
logP [4]: 2.82
Absorptive permeability on coadministration with dapivirine (HEC-1A barrier model): not altered
Permeabilities on coadministration with tenofovir (HEC-1A barrier model; tenofovir 0–100 µM): no effect
Papp A→B at 2 h ([5]; pH 7.4, read-out: Absorptive permeability Papp): 9.66 to 11.2 ×10⁻⁶ cm/s
Papp B→A at 2 h ([5]; pH 7.4, read-out: Secretory permeability Papp): 8.59 to 9.42 ×10⁻⁶ cm/s
Papp (HEC-1A cell layers [6]): 8.45 ± 0.68 ×10⁻⁶ cm/s
% Drug Distribution Apical (HEC-1A cells [7]; 1 μM): 82.90 ± 1.76%
% Drug Distribution Basolateral (HEC-1A cells [7]; 1 μM): 15.13 ± 1.44%
% Drug Distribution Apical (HEC-1A cells [7]; 5 μM): 83.15 ± 2.61%
% Drug Distribution Basolateral (HEC-1A cells [7]; 5 μM): 14.55 ± 1.88%
% Drug Distribution Cell-Associated (HEC-1A cells [7]; 5 μM): 2.55 ± 1.22%
% Drug Distribution Apical (HEC-1A cells [7]; 10 μM): 83.36 ± 2.12%
% Drug Distribution Basolateral (HEC-1A cells [7]; 10 μM): 13.95 ± 1.75%
% Drug Distribution Cell-Associated (HEC-1A cells [7]; 10 μM): 2.70 ± 1.31%
% Drug Distribution Apical (HEC-1A cells [7]; 20 μM): 81.72 ± 1.61%
% Drug Distribution Basolateral (HEC-1A cells [7]; 20 μM): 15.31 ± 1.22%
% Drug Distribution Cell-Associated (HEC-1A cells [7]; 20 μM): 2.97 ± 1.27%
Cell-associated drug (HEC-1A cells) (HEC-1A cells [7]): ≤ 3%

Papp at 2 h, 10 µM (in vitro): 1.06 ± 0.05 ×10⁻⁶ cm/s
Difference in Papp (A-B or B-A), poly(I:C)-stimulated vs unstimulated cell layers (HEC-1A cell layers [3]): no significant differences
Absorptive permeability on coadministration with dapivirine (HEC-1A barrier model): not altered
Absorptive or secretory permeability on coadministration with darunavir (HEC-1A barrier model; darunavir 0–10 µM): did not significantly alter
Papp A→B at 2 h ([5]; pH 7.4, apical to basolateral, over concentration range (tenofovir 0.1–100 µM; darunavir 0.1–20 µM, 0.01% DMSO), read-out: Absorptive permeability Papp): 1.76 to 2.06 ×10⁻⁶ cm/s
Papp B→A at 2 h ([5]; pH 7.4, basolateral to apical, over concentration range (tenofovir 0.1–100 µM; darunavir 0.1–20 µM, 0.01% DMSO), read-out: Secretory permeability Papp): 1.46 to 1.64 ×10⁻⁶ cm/s
efflux ratio at 2 h ([5]; pH 7.4, over concentration range tested, read-out: Efflux ratio (secretory/absorptive)): 0.77 to 0.83
Papp (HEC-1A cell layers [6]): 1.45 ± 0.21 ×10⁻⁶ cm/s
% Drug Distribution Apical (HEC-1A cells [7]; 0.1 μM): 97.03 ± 0.28%
% Drug Distribution Basolateral (HEC-1A cells [7]; 0.1 μM): 2.63 ± 0.25%
% Drug Distribution Cell-Associated (HEC-1A cells [7]; 0.1 μM): 0.34 ± 0.06%
% Drug Distribution Apical (HEC-1A cells [7]; 1 μM): 96.85 ± 0.29%
% Drug Distribution Basolateral (HEC-1A cells [7]; 1 μM): 2.73 ± 0.24%
% Drug Distribution Cell-Associated (HEC-1A cells [7]; 1 μM): 0.42 ± 0.08%
% Drug Distribution Apical (HEC-1A cells [7]; 10 μM): 96.91 ± 0.27%
% Drug Distribution Basolateral (HEC-1A cells [7]; 10 μM): 2.79 ± 0.25%
% Drug Distribution Cell-Associated (HEC-1A cells [7]; 10 μM): 0.3 ± 0.06%
% Drug Distribution Apical (HEC-1A cells [7]; 100 μM): 96.59 ± 0.41%
% Drug Distribution Basolateral (HEC-1A cells [7]; 100 μM): 2.99 ± 0.36%
% Drug Distribution Cell-Associated (HEC-1A cells [7]; 100 μM): 0.42 ± 0.17%
Recovery from the apical compartment after absorptive permeability assays (HEC-1A cells [7]; % of initial concentration, no Poloxamer): 96–97%
Cell-associated drug (HEC-1A cells) (HEC-1A cells [7]): ≤ 0.5%
Compound: C[C@H](Cn1cnc2c(N)ncnc21)OCP(=O)(O)O [tenofovir, Tenofovir]

Papp at 2 h, 10 µM (in vitro): 1.43 to 2.17 ×10⁻⁶ cm/s
Papp A→B at 2 h ([5]; pH 7.4, Absorptive Papp of mannitol, 1% DMSO in donor compartment (initial dapivirine assay)): 2.5 to 2.61 ×10⁻⁶ cm/s
Papp A→B at 2 h ([5]; pH 7.4, Absorptive Papp of mannitol, paracellular marker in the tenofovir permeability assay): 2.09 to 3.1 ×10⁻⁶ cm/s
Papp B→A at 2 h ([5]; pH 7.4, Secretory Papp of mannitol, 1% DMSO in donor compartment (initial dapivirine assay)): 5.1 to 6.81 ×10⁻⁶ cm/s
Papp B→A at 2 h ([5]; pH 7.4, Secretory Papp of mannitol, paracellular marker in the tenofovir permeability assay): 2.7 to 2.85 ×10⁻⁶ cm/s
Papp at 2 h ([5]; pH 7.4, mannitol measured simultaneously in drug permeability assays, read-out: Papp (barrier integrity control)): < 4 ×10⁻⁶ cm/s
Papp (HEC-1A cell layers [6]): 2.23 to 2.47 ×10⁻⁶ cm/s
Compound: OC[C@@H](O)[C@@H](O)[C@H](O)[C@H](O)CO [mannitol]
